Patent US20200181153A1, “IMIDAZOPYRIDAZINONE COMPOUNDS AND USES THEREOF” (Aduro Biotech, Inc., priority 2018, published 2020)

Tests used:
Human cGAS = target: T1, Human cGAS (Homo sapiens, UniProt Q8N884); experiment: cGAS biochemical activity assay (ATP levels by Kinase-Glo Max luminescence); details: human cGAS amino acids 155-522, 25 nM, activated by 1 μM double stranded DNA, 37° C. for 1.25 hours
T1 construct: hexahistidine tag (N, cleaved yes); made in house; host or cells: E. coli BL21 DE3 Rosetta 2
T1 sequence (Q8N884 157-522): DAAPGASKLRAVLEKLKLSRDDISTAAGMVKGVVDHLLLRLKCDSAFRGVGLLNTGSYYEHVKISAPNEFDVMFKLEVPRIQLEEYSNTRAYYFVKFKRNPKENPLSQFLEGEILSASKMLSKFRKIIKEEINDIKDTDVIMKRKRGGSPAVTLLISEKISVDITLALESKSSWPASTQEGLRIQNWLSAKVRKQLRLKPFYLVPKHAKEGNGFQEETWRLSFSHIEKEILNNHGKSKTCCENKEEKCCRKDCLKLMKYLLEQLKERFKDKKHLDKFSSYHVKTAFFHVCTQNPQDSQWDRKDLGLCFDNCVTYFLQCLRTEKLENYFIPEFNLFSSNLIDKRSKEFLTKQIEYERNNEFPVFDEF
Experimental: Human cGAS sequence encoding amino acids 155-522 was cloned into a pET (EMD Millipore) based expression plasmid. The resulting construct contained a tandem N-terminal hexahistidine tag, maltose binding protein fusion followed by a tobacco etch virus protease cleavable linker preceding cGAS amino acids 155-522.
Protein was expressed and purified from E. coli BL21 DE3 Rosetta 2 (EMD Millipore) cells using standard techniques. Cells were grown in 2× yeast extract tryptone medium and expression was initiated via the addition of isopropyl β-D-1-thiogalactopyranoside. Expression proceeded overnight at 18° C. Cells were harvested by centrifugation and subsequently […] via sonication. Insoluble fraction was removed by centrifugation. Maltose binding protein (MBP) fusion proteins were purified on a dextrin sepharose column (GE Healthcare) and the MBP tag was removed using tobacco etch virus protease overnight during dialysis. Protein was further purified on a heparin column (GE Healthcare) and eluted using a NaCl gradient. Column fraction were pooled and further purified on a Superdex 75 gel filtration column (GE Healthcare). Protein was quantified using 280 nm absorbance. Protein was then flash frozen in liquid nitrogen and stored at −80° C., until use.
Potential antagonists were diluted in 100% dimethyl sulfoxide and added to the reaction. Final dimethyl sulfoxide concentration was 5%. The compounds were tested from 250 μM with 5-fold serial dilutions down to 0.000128 μM.
Two complementary DNA oligos (IDT DNA) were annealed by slow cooling from 95° C. The resulting double stranded DNA was used to activate cGAS.
Reactions were performed at 37° C., for 1.25 hours. Reaction buffer: 20 mM Tris HCl pH 9, 100 mM NaCl, 5 mM MgCl2, 0.1 mg/ml bovine gamma globulin, 1 mM adenosine triphosphate, 250 μM guanosine triphosphate, 0.5 mM Tris(2-carboxyethyl)phosphine hydrochloride, 1 μM double stranded DNA and 25 nM purified cGAS protein.
Reactions were stopped and ATP levels in the reaction were measured using a luciferase based assay. Promega Kinase-Glo Max Assay. Luminescence was measured on a plate reader (Molecular Devices). Values were normalized to control wells lacking compound.

cGAS/STING pathway = experiment: THP1 cell-based cGAS/STING pathway activity assay (luciferase reporter linked to IRF-3 activation); details: Homo sapiens, THP-1
From the text: (§1) A cellular assay can be used to assess the compounds of the invention for their ability to inhibit the cGAS/STING pathway. Cells that express a luciferase-based reporter that is linked to IRF-3 activation are used to determine response as a function of compound concentration. Such an assay is described in Vincent et al., Nature Communications 2017, 8(1):750, doi: 10.1038/s41467-017-00833-9.
as §1, with “10.1038/s41467-017-00833-9. Compounds of the invention were assessed using similar assay methods in a THP1 cell assay to generate IC50 values.” for “10.1038/s41467-017-00833-9.”

IC50 (Human cGAS) | IC50 (cGAS/STING pathway) | Compound
< 1000 nM | < 10000 nM | COc1cccc(-c2c(C)[nH]n3c(-c4ccccc4)c(C#N)nc3c2=O)c1 [Compound 5, 7-(3-methoxyphenyl)-6-methyl-8-oxo-3-phenyl-5,8-dihydroimidazo[1,2-b]pyridazine-2-carbonitrile]
< 1000 nM | < 10000 nM | CCc1ccc(-c2c(C)[nH]n3c(-c4ccccc4)c(C#N)nc3c2=O)cc1 [Compound 13, 7-(4-ethylphenyl)-6-methyl-8-oxo-3-phenyl-5,8-dihydroimidazo[1,2-b]pyridazine-2-carbonitrile]
< 1000 nM |  | Cc1cc(=O)c2nc(C#N)c(-c3ccccc3)n2[nH]1 [Compound 3, 6-methyl-8-oxo-3-phenyl-5,8-dihydroimidazo[1,2-b]pyridazine-2-carbonitrile]
< 1000 nM | < 10000 nM | Cc1[nH]n2c(-c3ccccc3)c(C#N)nc2c(=O)c1-c1cccc(Cl)c1 [Compound 6, 7-(3-chlorophenyl)-6-methyl-8-oxo-3-phenyl-5,8-dihydroimidazo[1,2-b]pyridazine-2-carbonitrile]
